Results taken from patent US20200149038A1, “METHODS AND COMPOSITIONS RELATING TO HOMOLOGY-DIRECTED REPAIR” (CHILDREN'S MEDICAL CENTER CORPORATION, priority 2016, published 2020).
Read-outs that look alike come from different tables or passages of the source.

Tests used:
[1] = test system: Cas9 with gRNA targeting CCR5 in HEK293 cells; test: High Throughput Genome-wide Translocation Sequencing (HTGTS) off-target analysis; type: cell-based, human
Description: However the impact of DNA repair pathway choice manipulation on genomic integrity is largely unaddressed. To address the impact of ectopic expression of RAD52 and dn53BP1 genomic integrity and CRISPR/Cas9-associated off-target effects the state of the art “High Throughput Genome-wide Translocation Sequencing” (HTGTS)^20—an unbiased approach to monitor off-target (OT) cutting—was utilized. […] As CRISPR/Cas9 may have unintended cutting activity at totally unrelated sequences that can not be predicted by an algorithm, the off-target activity of each guide by HTGTS was examined (data not shown). Though majority of the OTs identified by HGTS overlapped with those identified previously, it was possible to detect novel OTs (data not shown). To study the impact of RAD52 and dn53BP1 on OTs and genomic integrity one guide with no OTs (CCR5D) and other guide that has 7 OTs identified by HTGTS (CCR5Q) were further examined.
HTGTS and Off-Target Analysis. Off-target analysis was carried out by HTGTS as described earlier^20. Briefly, HEK293 cells were co-transfected with expression plasmids encoding Cas9:RAG1B (20 μg), guide RNA targeting CCR5 (10 μg), RAD52 and dn53BP1 (5 μg each) and GFA (5 μg) using Calcium Phosphate. Cells were lysed 48 hours post-transfection and DNA was isolated by ethanol precipitation. 50 μg of DNA was processed for HTGTS as described^20.
However, the impact that such manipulations may have on genomic integrity has not been addressed. To address the impact of ectopic expression of RAD52 and dn53BP1 on genomic integrity and CRISPR/Cas9 specificity High Throughput Genome-wide Translocation Sequencing (HTGTS) was utilized (Frock et al., 2014)—an unbiased approach to monitor the specificity and off-target (OT) activity of Cas9 and other engineered nucleases as well as other types of DSBs.
HTGTS was conducted to analyse off-target effects for gRNA targeting CCR5 (FIG. 8A).

[2] = test system: primary human CD34+ hematopoietic stem and progenitor cells; conditions: Mandal et al. 2014; cited from earlier work

| Substance | number of off-target sites (OTs) identified by HTGTS [1] | off-target activity in CD34+ HSPC [2] | number of off-target sites (OTs) identified by HTGTS ([1]; listed as CCR5D) |
| --- | --- | --- | --- |
| gCCR5Q: guide RNA targeting CCR5, spacer GCTGTGTTTGCGTCTCTCCC (guide GCTGTGTTTGCGTCTCTCCCAGG; listed as DNA, chemistry not given here; the letters are possibly those of the target site; listed as Homo sapiens) | 7 | did not exhibit OT activity | – |
| gCCR5D: guide RNA targeting CCR5, spacer TCACTATGCTGCCGCCCAGT (guide TCACTATGCTGCCGCCCAGTGGG; listed as DNA, chemistry not given here; the letters are possibly those of the target site; listed as Homo sapiens) | no OT | did not exhibit OT activity | no OTs |
